Literature values as cited in patent US20250248977A1, “Tablet Formulation Of Tafamidis Or Pharmaceutically Acceptable Salt Thereof” (Navinta LLC, priority 2024, published 2025).

aqueous solubility: low
SMILES: O=C(O)c1ccc2nc(-c3cc(Cl)cc(Cl)c3)oc2c1 [Tafamidis, 2-(3,5-dichlorophenyl)-1,3-benzoxazole-6-carboxylic acid]
